Literature values as cited in US20250367263A9, “Therapeutic Regimens and Methods for Treatment of Cardiovascular Risk Factors using a GLP-1R and GCGR Agonist” (Spitfire Pharma LLC, priority 2022, published 2025).

Compound: CCCCCCCCCCCCCCCC(=O)N[C@@H](CCC(=O)NCCCC[C@H](NC(=O)[C@H](CC(=O)O)NC(=O)[C@H](CO)NC(=O)[C@@H](NC(=O)[C@H](Cc1ccccc1)NC(=O)[C@@H](NC(=O)CNC(=O)[C@H](CCC(N)=O)NC(=O)[C@H](CO)NC(=O)[C@@H](N)Cc1c[nH]cn1)[C@@H](C)O)[C@@H](C)O)C(=O)N[C@@H](CO)C(=O)N[C@@H](CCC(=O)O)C(=O)N[C@@H](Cc1ccc(O)cc1)C(=O)N[C@@H](CC(C)C)C(=O)N[C@@H](CC(=O)O)C(=O)N[C@@H](CO)C(=O)N[C@@H](CCC(=O)O)C(=O)N[C@@H](CCCNC(=N)N)C(=O)N[C@@H](C)C(=O)N[C@@H](CCCNC(=N)N)C(=O)N[C@@H](CC(=O)O)C(=O)N[C@@H](Cc1ccccc1)C(=O)N[C@H](C(=O)N[C@@H](C)C(=O)N[C@@H](Cc1c[nH]c2ccccc12)C(=O)N[C@@H](CC(C)C)C(=O)N[C@@H](CCC(=O)O)C(=O)N[C@@H](C)C(=O)NCC(=O)NCC(=O)O)C(C)C)C(=O)O [cotadutide]
- reduction in liver fat content (6 weeks): 39%
- NASH-related alanine aminotransferase (ALT) reduction, versus liraglutide alone (human, in vivo): greater improvement
